Calls of active or inactive are those of the source. The calls are words filed in the database; no cut-off is given here.
Legend:
Human alphaherpesvirus 1 [1] = test: Antiviral activity against HSV1 infected in […] cells at 2 ug/disk; type: functional, organism-based
Poliovirus 1 [2] = test: Antiviral activity against Poliovirus type 1 infected in […] cells at 2 ug/disk; type: functional, organism-based
[3] = Cytotoxicity against […] cells at 2 ug/disk; type: cell-based
Human alphaherpesvirus 1 [4] = test: Antiviral activity against HSV1 infected in […] cells at 20 ug/disk; type: functional, organism-based
Poliovirus 1 [5] = test: Antiviral activity against Poliovirus type 1 infected in […] cells at 20 ug/disk; type: functional, organism-based

SMILES	Activity (Human alphaherpesvirus 1 [1])	Activity (Poliovirus 1 [2])	Activity [3]	Activity (Human alphaherpesvirus 1 [4])	Activity (Poliovirus 1 [5])
COC1=C(C)C(=O)O/C1=C\[C@@H](C)CCC/C(C)=C/CC/C(C)=C/CC(=O)c1ccoc1	inactive	inactive			
CC1=C(O)/C(=C/[C@@H](C)CCC/C(C)=C/CC/C(C)=C/CCc2ccoc2)OC1=O			Toxic		
CC1=C(O)/C(=C/[C@@H](C)CCC/C(C)=C/CCC(C)(O)CCCc2ccoc2)OC1=O (stereo partly drawn)				inactive	inactive
C=C(CC/C=C(\C)CCC(=O)c1ccoc1)CCC[C@H](C)/C=C1\OC(=O)C(C)=C1OC	inactive	inactive			
COC1=C(C)C(=O)O/C1=C\[C@@H](C)CCC/C(C)=C/CC/C(C)=C/CCc1ccoc1				inactive	inactive
COC1=C(C)C(=O)O/C1=C\[C@@H](C)CCC/C(C)=C/C/C=C(\C)CCC(=O)c1ccoc1	inactive	inactive			
COC1=C(C)C(=O)O/C1=C\[C@@H](C)CCC/C(C)=C/CCC(C)(O)CCCc1ccoc1 (stereo partly drawn)				inactive	inactive

Source: ChEMBL document CHEMBL1151130, “Oxygenated Furanosesterterpene Tetronic Acids from a Sponge of the Genus Ircinia” (J Nat Prod, 1988)
